Reference: patent US8377948B2, “Antitumor agents and methods of their use” (The Ohio State University Research Foundation, priority 2004, dated 2013)

Key:
[1] = test system: different prostate cancer cell lines; assay: Proliferation of different prostate cancer cell lines; type: cell-based; conditions: at low μM levels
Excerpt: (§1) Further structural improvement was accomplished by replacing the methoxy side chains on the quinazoline ring with propoxy functions. Both 33 and 44 were effective in suppressing the proliferation of different prostate cancer cell lines at low μM levels. In addition, both agents were submitted to the Developmental Therapeutic Program (DTP) at the National Cancer Institute (NCI) for screening against sixty human tumor cells lines, representing leukemia, melanoma, and cancers of lung, colon, brain, ovary, breast, prostate, and kidney.

PC-3 cells [2] = assay: Cell viability / apoptotic death of PC-3 cells in 1% FBS-supplemented RPMI 1640 medium; type: cell-based, human; conditions: for IC50: 1% FBS-supplemented medium
Excerpt: (§2) (A) Left panel, Time- and dose-dependent effect of doxazosin on the cell viability of PC-3 cells in 1% FBS-supplemented RPMI 1640 medium. Values obtained from six replicates were plotted at each time point at the indicated concentrations of doxazosin. Right panel, induction of poly(ADP-ribose) polymerase (PARP) cleavage by doxazosin at the indicated concentrations after 48-h treatment. PARP proteolysis to the apoptosis-specific 85-kd fragment was monitored by Western blotting. Although there was no substantial accumulation of the 85-kd fragment, significant decrease in the level of native protein was noted. (B) Dose- and time-dependent (upper and lower panels, respectively) effects of doxazosin on Akt phosphorylation. (C) dose-dependent effect of doxazosin on ERK phosphorylation. PC-3 cells were treated with doxazosin at the indicated concentrations for 24 h or at 25 μM for the indicated times and lysed, and proteins in the resulting supernatants were resolved on SDS-PAGE and subjected to Western blot analysis. The phosphorylation status of Akt and ERKs was determined by immunoblotting with the respective phospho-specific antibodies. Unphosphorylated Akt and ERKs, as immunostained by anti-Akt and anti-ERK antibodies, were used as internal standards for the comparison of phospho-Akt and phospho-ERK levels among samples of different preparations. The blots are representative of three independent experiments.
(§3) (B) Western blot analysis of […] proteolysis and Akt dephosphorylation in PC-3 cells treated with the indicated concentrations of 33 for 48 h. (C) Effects of compound 44 on Akt phosphorylation in PC-3 cells treated with the indicated concentrations for 48 h.
(§4) Effect of the test agent on cell viability was assessed by the MTT {[3-(4,5-dimethylthiazol-2-yl)-2,5-diphenyl-2H-tetrazolium bromide]} assay in 96-well, flat-bottomed plates, in which 8,000 PC-3 or DU-145 cells/well were seeded. Cells were exposed to the test agent at the indicated concentrations, in six replicates, in 10% FBS-supplemented-RPMI-1640 medium at 37° C. in 5% CO2 for 48 hr. The medium was removed and replaced by 150 μL of 0.5 mg/mL of MTT in RPMI-1640 medium, and cells were incubated in the CO2 incubator at 37° C. for 2 h. Supernatants were removed from the wells, and the reduced MTT dye was solubilized with 200 μL/well DMSO. Absorbance was determined on a plate reader at 570 nm.
Doxazosin induced apoptosis, in part, by facilitating Akt dephosphorylation. […] The potency of doxazosin in inducing apoptosis, however, was moderate.

[3] = test system: sixty human tumor cells lines; assay: NCI Developmental Therapeutic Program screening against sixty human tumor cell lines; type: cell-based; conditions: for GI50: Homo sapiens, mean among sixty cell lines, read-out: mean GI50 (concentration resulting in 50% growth inhibition); for sensitivity of all tested cell lines to growth inhibitory effects: sixty cell lines
Excerpt: as §1

Akt = assay: Western blot analysis of Akt phosphorylation in PC-3 cells; type: cell-based, human; conditions: for effect on Akt phosphorylation: Western blot
Excerpt: as §2, §3
PC-3 cells (1.5×106) treated with the test agent at the indicated concentrations in RPMI 1640 medium for 24 h were collected and sonicated. Protein concentrations of the lysates were determined by using a Bradford protein assay kit (Bio-Rad, Hercules, Calif.); equivalent amounts of proteins from each lysate were resolved in 10% SDS-polyacrylamide gel and then transferred onto Immobilon-nitrocellulose membranes (Millipore, Bellerica, MA) in a semidry transfer cell. The transblotted membrane was washed twice with Tris-buffered saline (TBS) containing 0.1% Tween 20 (TBST). After blocking with TBST containing 5% nonfat milk for 40 min, the membrane was incubated with the primary antibody (1:1000 dilution) in TBST-1% nonfat milk at 4° C. overnight. After treatment with the primary antibody, the membrane was washed three times with TBST for a total of 15 min, followed by goat anti-rabbit or anti-mouse IgG-horseradish peroxidase conjugates (diluted 1:3000) for 1 h at room temperature and wash three times with TBST for a total of 1 h. The immunoblots were visualized by enhanced chemiluminescence.

PC-3 cells [4] = assay: MTT cell viability assay, PC-3 cells in 10% FBS medium; type: cell-based, human; conditions: RPMI 1640 with 10% FBS, means ± S.D. (n = 6)
Procedure: PC-3 (p53−/−) human androgen-nonresponsive prostate cancer cells were purchased from the American Type Tissue Collection (Manassas, Va.). Cells were cultured in RPMI 1640 medium (Gibco, Grand Island, N.Y.) supplemented with 10% fetal bovine serum (FBS; Gibco) at 37° C. in a humidified incubator containing 5% CO2.
as §4
All compounds were evaluated for their ability to induce apoptotic death in human androgen-independent PC-3 prostate cancer in RPMI 1640 medium containing 10% fetal bovine serum (FBS). For representative compounds tested in DU-145 and LNCaP prostate cancer cells, the IC50 values for inhibiting cell proliferation were similar in these three cell lines irrespective of differences in androgen sensitivity, PTEN mutation, the functional status of p53 and Rb, and other biomarkers.

serum proteins = conditions: cited from earlier work
[5] = test system: PC-3 cells overexpressing Akt^T308D/S473D; assay: Viability of PC-3 cells transiently transfected with constitutively active Akt; type: cell-based, human; conditions: 25 μM, 1% FBS-supplemented medium, 24 h, versus empty pcDNA vector
Procedure: (A) Expression of Akt^T308D/S473D in PC-3 transient transfection. Western blot analysis used antibodies against Akt, and the HA tag. B) Viability of PC-3 cells overexpressing Akt^T308D/S473D vis-à-vis cells transfected with empty pcDNA vector (mock) in the presence of 25 μM doxazosin in 1% FBS-supplemented medium for 24 h. Values are means±S.D. (n=3).
The constitutively active Akt construct HA-PKB-T308D/S473D was kindly provided by Dr. Brain Hemmings (Friedrich Miescher Institute, Basel, Switzerland). PC-3 cells were seeded into T-75 flasks (1.5×10^6/flask). Aliquots containing 3 μg of each plasmid or a control pcDNA3.1(+) vector in 750 μl of Opti-MEM medium (Invitrogen-Life Technologies, Inc.,) was incubated with 9 μl of the FuGene 6 reagent (Roche Diagnostics Corp., Indianapolis, Ind.) for 15 min. Each flask was washed with Opti-MEM medium and then received the plasmid-FuGene 6 mixture and 4 ml of Opti-MEM medium. The flask was placed in a CO2 incubator for 4 h, and the transfection medium was replaced with 10% FBS-supplemented RPMI 1640. […]
To examine the causal relationship between Akt deactivation and doxazosin-mediated apoptosis, the protective effect of the transient transfection of constitutively active Akt, Akt^T308D/S473D (ref. 14), on drug-induced PC-3 cell death, was assessed. […]

immunoprecipitated Akt = immunoprecipitated Akt (Homo sapiens, UniProt P31749); assay: Kinase activity of immunoprecipitated Akt; type: biochemical
Chain of immunoprecipitated Akt (P31749 whole entry): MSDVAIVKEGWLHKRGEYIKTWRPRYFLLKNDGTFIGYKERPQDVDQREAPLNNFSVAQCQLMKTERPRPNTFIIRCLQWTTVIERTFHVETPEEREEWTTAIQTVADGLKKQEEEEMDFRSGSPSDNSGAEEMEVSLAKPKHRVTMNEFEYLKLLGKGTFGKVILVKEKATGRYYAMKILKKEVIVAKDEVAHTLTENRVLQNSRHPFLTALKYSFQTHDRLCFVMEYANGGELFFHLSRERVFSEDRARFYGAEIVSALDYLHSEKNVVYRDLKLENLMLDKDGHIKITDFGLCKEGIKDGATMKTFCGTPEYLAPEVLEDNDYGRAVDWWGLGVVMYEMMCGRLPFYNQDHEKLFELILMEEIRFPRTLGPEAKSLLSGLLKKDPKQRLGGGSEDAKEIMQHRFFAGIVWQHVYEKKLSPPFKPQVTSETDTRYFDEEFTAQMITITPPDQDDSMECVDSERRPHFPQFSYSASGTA

ERKs = assay: Western blot analysis of ERK phosphorylation in PC-3 cells; type: cell-based, human; conditions: even at 50 μM
Excerpt: (A) Left panel, Time- and dose-dependent effect of doxazosin on the cell viability of PC-3 cells in 1% FBS-supplemented RPMI 1640 medium. Values obtained from six replicates were plotted at each time point at the indicated concentrations of doxazosin. Right panel, induction of poly(ADP-ribose) polymerase (PARP) cleavage by doxazosin at the indicated concentrations after 48-h treatment. PARP proteolysis to the apoptosis-specific 85-kd fragment was monitored by Western blotting. Although there was no substantial accumulation of the 85-kd fragment, significant decrease in the level of native protein was noted. (B) Dose- and time-dependent (upper and lower panels, respectively) effects of doxazosin on Akt phosphorylation. (C) dose-dependent effect of doxazosin on ERK phosphorylation. […] The phosphorylation status of Akt and ERKs was determined by immunoblotting with the respective phospho-specific antibodies. […]
PC-3 cells (1.5×106) treated with the test agent at the indicated concentrations in RPMI 1640 medium for 24 h were collected and sonicated. Protein concentrations of the lysates were determined by using a Bradford protein assay kit (Bio-Rad, Hercules, Calif.); equivalent amounts of proteins from each lysate were resolved in 10% SDS-polyacrylamide gel and then transferred onto Immobilon-nitrocellulose membranes (Millipore, Bellerica, MA) in a semidry transfer cell. […]

## COc1cc2nc(N3CCN(S(=O)(=O)c4ccc(-c5ccccc5)cc4)CC3)nc(N)c2cc1OC [Compound 33, 2-[4-(Biphenyl-4-sulfonyl)-piperazin-1-yl]-6,7-dimethoxy-quinazolin-4-ylamine]
[1]
  suppressing the proliferation: effective
PC-3 cells [2]; Homo sapiens, 48 h, read-out: IC50
  IC50: ~2.5 µM
[3]
  GI50: 2.2 µM
  sensitivity of all tested cell lines to growth inhibitory effects: high degree of sensitivity
Akt
  effect on Akt phosphorylation: inhibition of Akt activation
PC-3 cells [4]; Homo sapiens, PC-3, 48 h
  IC50: 4 to 5 µM
PC-3 cells [4]; 48 h
  IC50: 4.2 ± 0.8 µM

## COc1cc2nc(N3CCN(S(=O)(=O)c4ccc(-c5cc6ccccc6c6ccccc56)cc4)CC3)nc(N)c2cc1OC [Compound 35, 6,7-Dimethoxy-2-[4-(4-phenanthren-9-yl-benzenesulfonyl)-piperazin-1-yl]-quinazolin-4-ylamine]
PC-3 cells [4]; Homo sapiens, PC-3, 48 h
  IC50: 4 to 5 µM
PC-3 cells [4]; 48 h
  IC50: 5.2 ± 0.9 µM

## COc1cc2nc(N3CCN(S(=O)(=O)c4ccc(-c5ccc(C)cc5)cc4)CC3)nc(N)c2cc1OC [Compound 36, 6,7-Dimethoxy-2-[4-(4′-methyl-biphenyl-4-sulfonyl)-piperazin-1-yl]-quinazolin-4-yl-amine]
PC-3 cells [4]; Homo sapiens, PC-3, 48 h
  IC50: 3.4 ± 0.4 µM

## COc1cc2nc(N3CCN(S(=O)(=O)c4ccc(-c5ccc(C(F)(F)F)cc5)cc4)CC3)nc(N)c2cc1OC [Compound 37, 6,7-Dimethoxy-2-[4-(4′-trifluoromethyl-biphenyl-4-sulfonyl)-piperazin-1-yl]-quinazolin-4-yl-amine]
PC-3 cells [4]; Homo sapiens, PC-3, 48 h
  IC50: 3.3 ± 0.3 µM

## COc1cc2nc(N3CCN(S(=O)(=O)c4ccc(-c5ccc(S(C)(=O)=O)cc5)cc4)CC3)nc(N)c2cc1OC [Compound 38, 2-[4-(4′-Methanesulfonyl-biphenyl-4-sulfonyl)-piperazin-1-yl]-6,7-dimethoxy-quinazolin-4-ylamine]
PC-3 cells [4]; Homo sapiens, PC-3, 48 h
  IC50: 7.2 ± 0.5 µM

## CCCCc1ccc(-c2ccc(S(=O)(=O)N3CCN(c4nc(N)c5cc(OC)c(OC)cc5n4)CC3)cc2)cc1 [Compound 39, 2-[4-(4′-Butyl-biphenyl-4-sulfonyl)-piperazin-1-yl]-6,7-dimethoxy-quinazolin-4-yl-amine]
PC-3 cells [4]; Homo sapiens, PC-3, 48 h
  IC50: 3.4 ± 0.2 µM

## COc1cc2nc(N3CCN(S(=O)(=O)c4ccc(-c5ccc(C(C)(C)C)cc5)cc4)CC3)nc(N)c2cc1OC [Compound 40, 2-[4-(4′-tert-Butyl-biphenyl-4-sulfonyl)-piperazin-1-yl]-6,7-dimethoxy-quinazolin-4-yl-amine]
PC-3 cells [4]; Homo sapiens, PC-3, 48 h
  IC50: 10 ± 2 µM

## C=CCOc1cc2nc(N3CCN(S(=O)(=O)c4ccc(-c5ccccc5)cc4)CC3)nc(N)c2cc1OCC=C [Compound 43, 6,7-Bis-allyloxy-2-[4-(biphenyl-4-sulfonyl)-piperazin-1-yl]-quinazolin-4-ylamine]
PC-3 cells [4]; Homo sapiens, PC-3, 48 h
  IC50: 3.3 ± 0.4 µM

## CCCOc1cc2nc(N3CCN(S(=O)(=O)c4ccc(-c5ccccc5)cc4)CC3)nc(N)c2cc1OCCC [Compound 44, 2-[4-(Biphenyl-4-sulfonyl)-piperazin-1-yl]-6,7-dipropoxy-quinazolin-4-yl-amine]
[1]
  suppressing the proliferation: effective
[3]
  GI50: 1.5 µM
  sensitivity of all tested cell lines to growth inhibitory effects: high degree of sensitivity
Akt; 48 h, Western blot (FIG. 6C)
  concentration at which dephosphorylation of phospho-Akt was evident (as low as): 1 µM
Akt
  effect on Akt phosphorylation: dephosphorylation of phospho-Akt in a dose-dependent manner
PC-3 cells [4]; Homo sapiens, PC-3, 48 h
  IC50: 2.5 µM

## CC(C)Oc1cc2nc(N3CCN(S(=O)(=O)c4ccc(-c5ccccc5)cc4)CC3)nc(N)c2cc1OC(C)C [Compound 45, 2-[4-(Biphenyl-4-sulfonyl)-piperazin-1-yl]-6,7-diisopropoxy-quinazolin-4-yl-amine]
PC-3 cells [4]; Homo sapiens, PC-3, 48 h
  IC50: 24 µM

## CCCCOc1cc2nc(N3CCN(S(=O)(=O)c4ccc(-c5ccccc5)cc4)CC3)nc(N)c2cc1OCCCC [Compound 46, 2-[4-(Biphenyl-4-sulfonyl)-piperazin-1-yl]-6,7-dibutoxy-quinazolin-4-ylamine]
PC-3 cells [4]; Homo sapiens, PC-3, 48 h
  IC50: 3.5 ± 0.4 µM

## COc1cc2nc(N3CCN(C(=O)C4COc5ccccc5O4)CC3)nc(N)c2cc1OC (centres unmarked) [Doxazosin]
Serum proteins
  binding affinity with serum proteins: high binding affinity
[5]
  protection by Akt^T308D/S473D against drug-induced apoptotic death: partial, yet significant, protection
PC-3 cells [2]; 1% FBS-supplemented RPMI 1640, 10 μM
  apoptotic death: no appreciable apoptotic death
PC-3 cells [2]; 1% FBS-supplemented RPMI 1640, 25 μM and up
  drug-induced apoptosis: susceptible to the drug-induced apoptosis
PC-3 cells [2]; read-out: IC50, apoptosis-inducing potency
  IC50: 20 µM
Immunoprecipitated Akt
  inhibitory effect on kinase activity of immunoprecipitated Akt: no inhibitory effects
Akt
  effect on Akt phosphorylation: Akt dephosphorylation in a dose- and time-dependent manner
ERKs
  effect on phosphorylation status of ERKs: did not affect
PC-3 cells [4]; 48 h
  IC50: 45 µM
